Values joined by “and” are separate entries in the source; they are usually repeats but may differ in a detail not shown here. Equal entries are not always repeated.
Key:
[1] = Stability of ^89Zr complexes in human serum at 37° C. for 7 d (ITLC, SEC); conditions: for stability in human serum (ITLC and SEC): bare ligand complexes, one week
Procedure: Seven day old samples of the Zr-ligand complexes were run down a size exclusion column to differentiate protein and ligand.
Serum stability and immunoreactivity of ^89Zr-complexes were evaluated. To determine the stability in serum, ^89Zr-complexes were incubated in human serum at 37° C. for 7 d. The percentage of intact species was monitored by ITLC (Table 9).
^89Zr-ligand and ^89Zr-ligand-antibody complexes were prepared according to the radiolabeling protocol as described above. For each ^89Zr complex, samples were made consisting of 900 μL human serum and 100 μL of the ^89Zr species and were placed in a heat block at 37° C. with agitation. Samples were monitored using radio-TLC before being added to the serum and then after 1 week of incubation. The stability of the complexes was measured as the percentage of ^89Zr that was retained at the origin of the ITLC strip and therefore still intact.

[2] = EDTA transchelation challenge of ^89Zr complexes; type: physicochemical; conditions: 50-fold excess of EDTA, 37° C., various pHs, 7 days
Source text: (§1) In contrast, ^89Zr-HOPO is shown to be approximately impervious to the EDTA. […] This represents a significant improvement in the stability of the Zr-ligand complex at lower pH. […] Initially activity is seen in the bladder, gall bladder, and intestines.

[3] = Biodistribution and clearance of ^89Zr-HOPO and ^89Zr-DFO in healthy mice; type: in vivo, healthy athymic nude mice; set-up: biodistribution Spleen / biodistribution Stomach / biodistribution Large Intestine / biodistribution Small Intestine / biodistribution Kidney / biodistribution Bladder / biodistribution Muscle / biodistribution Bone / biodistribution Tail / biodistribution Blood / biodistribution Heart / biodistribution Lung / biodistribution Gall Bladder / biodistribution Liver: unit not given here; conditions: for clearance route: healthy mice
Source text: Significant uptake of ^89Zr-HOPO occurs in the gall bladder and intestines as well as the kidney. […] As ^89Zr-DFO is cleared exclusively through the kidneys and not through the hepatobiliary system, it is excreted from the body faster than ^89Zr-HOPO, as evidenced by the blood clearance curve (FIG. 10). While not wishing to be bound to theory, upon conjugation to an antibody, the pharmacokinetics of a ^89Zr-HOPO complex comprising ^89Zr-HOPO and an antibody can be superseded by those of the biomacromolecule, meaning that a difference in clearance pathways between ^89Zr-HOPO and ^89Zr-DFO should not be a concern. However, over the short circulation time of the Zr-ligand complexes, neither DFO nor HOPO show any signs of instability or bone accumulation.

FIG. 2 = test: FIG. 2
Source text: Table printed on a drawing sheet, FIG. 2
as §1
First reader's note: Cell hatching encodes the percent-intact class given in the legend; the values show stability of the radiometal-chelator complexes against EDTA transchelation.

[4] = Partition coefficients of ^89Zr complexes at pH 7.4; type: physicochemical
Source text: Without having to be bound to any theory, the difference in clearance pathways between the two complexes is the difference in their partitions coefficients.

CC(=O)N(O)CCCCCNC(=O)CCC(=O)N(O)CCCCCNC(=O)CCC(=O)N(O)CCCCCNC(=S)Nc1ccc(N=C=S)cc1 (89Zr complex, metal not drawn) [p-SCN-Bn-DFO]
percentage of intact species, Ligand Only ([1]; ^89Zr-ligand complex, human serum, 7 d, ITLC): 97.7±0.2%

CC(=O)N1CCCCCNC(=O)CCC(=O)N2CCCCCNC(=O)CCC(=O)N(CCCCCN)[O][89Zr+]([O]1)[O]2 [^89Zr-DFO]
stability in human serum (ITLC and SEC) [1]: stable in serum over 7 days
stability to transchelation by EDTA [2]: susceptible to transchelation
biodistribution Bladder ([3]; 10 min): 2.50 ± 0.48
biodistribution Blood ([3]; 10 min): 5.11 ± 0.90
biodistribution Bone ([3]; 10 min): 0.43 ± 0.10
biodistribution Gall Bladder ([3]; 10 min): 1.57 ± 0.25
biodistribution Heart ([3]; 10 min): 2.17 ± 0.62
biodistribution Kidney ([3]; 10 min): 14.44 ± 5.88
biodistribution Large Intestine ([3]; 10 min): 0.43 ± 0.13
biodistribution Liver ([3]; 10 min): 0.88 ± 0.49
biodistribution Lung ([3]; 10 min): 2.16 ± 1.08
biodistribution Muscle ([3]; 10 min): 0.73 ± 0.56
biodistribution Small Intestine ([3]; 10 min): 0.94 ± 0.16
biodistribution Spleen ([3]; 10 min): 0.37 ± 0.22
biodistribution Stomach ([3]; 10 min): 0.62 ± 0.28
biodistribution Tail ([3]; 10 min): 5.13 ± 2.92
biodistribution Bladder ([3]; 1 h): 2.47 ± 1.30
biodistribution Blood ([3]; 1 h): 0.10 ± 0.04
biodistribution Bone ([3]; 1 h): 0.07 ± 0.04
biodistribution Gall Bladder ([3]; 1 h): 0.47 ± 0.14
biodistribution Heart ([3]; 1 h): 0.06 ± 0.02
biodistribution Kidney ([3]; 1 h): 1.39 ± 0.55
biodistribution Large Intestine ([3]; 1 h): 0.02 ± 0.01
biodistribution Liver ([3]; 1 h): 0.24 ± 0.07
biodistribution Lung ([3]; 1 h): 0.14 ± 0.04
biodistribution Muscle ([3]; 1 h): 0.02 ± 0.01
biodistribution Small Intestine ([3]; 1 h): 0.35 ± 0.17
biodistribution Spleen ([3]; 1 h): 0.06 ± 0.02
biodistribution Stomach ([3]; 1 h): 1.10 ± 0.51
biodistribution Tail ([3]; 1 h): 0.26 ± 0.05
biodistribution Bladder ([3]; 4 h): 1.22 ± 0.77
biodistribution Blood ([3]; 4 h): 0.03 ± 0.01
biodistribution Bone ([3]; 4 h): 0.04 ± 0.02
biodistribution Gall Bladder ([3]; 4 h): 0.26 ± 0.15
biodistribution Heart ([3]; 4 h): 0.03 ± 0.01
biodistribution Kidney ([3]; 4 h): 1.10 ± 0.44
biodistribution Large Intestine ([3]; 4 h): 0.62 ± 0.55
biodistribution Liver ([3]; 4 h): 0.12 ± 0.03
biodistribution Lung ([3]; 4 h): 0.04 ± 0.02
biodistribution Muscle ([3]; 4 h): 0.01 ± 0.01
biodistribution Small Intestine ([3]; 4 h): 0.04 ± 0.02
biodistribution Spleen ([3]; 4 h): 0.03 ± 0.01
biodistribution Stomach ([3]; 4 h): 0.06 ± 0.02
biodistribution Tail ([3]; 4 h): 0.14 ± 0.08
biodistribution Bladder ([3]; 12 h): 0.69 ± 0.31
biodistribution Blood ([3]; 12 h): 0.01 ± 0.00
biodistribution Bone ([3]; 12 h): 0.03 ± 0.01
biodistribution Gall Bladder ([3]; 12 h): 0.16 ± 0.14
biodistribution Heart ([3]; 12 h): 0.02 ± 0.00
biodistribution Kidney ([3]; 12 h): 0.36 ± 0.13
biodistribution Large Intestine ([3]; 12 h): 0.07 ± 0.05
biodistribution Liver ([3]; 12 h): 0.06 ± 0.02
biodistribution Lung ([3]; 12 h): 0.02 ± 0.01
biodistribution Muscle ([3]; 12 h): 0.01 ± 0.00
biodistribution Small Intestine ([3]; 12 h): 0.01 ± 0.01
biodistribution Spleen ([3]; 12 h): 0.02 ± 0.01
biodistribution Stomach ([3]; 12 h): 0.01 ± 0.00
biodistribution Tail ([3]; 12 h): 0.13 ± 0.05
biodistribution Bladder ([3]; 24 h): 0.56 ± 0.41
biodistribution Blood ([3]; 24 h): 0.02 ± 0.02
biodistribution Bone ([3]; 24 h): 0.06 ± 0.01
biodistribution Gall Bladder ([3]; 24 h): 0.23 ± 0.21
biodistribution Heart ([3]; 24 h): 0.02 ± 0.01
biodistribution Kidney ([3]; 24 h): 1.12 ± 0.33
biodistribution Large Intestine ([3]; 24 h): 0.02 ± 0.01
biodistribution Liver ([3]; 24 h): 0.11 ± 0.02
biodistribution Lung ([3]; 24 h): 0.04 ± 0.01
biodistribution Muscle ([3]; 24 h): 0.01 ± 0.00
biodistribution Small Intestine ([3]; 24 h): 0.02 ± 0.01
biodistribution Spleen ([3]; 24 h): 0.02 ± 0.01
biodistribution Stomach ([3]; 24 h): 0.01 ± 0.01
biodistribution Tail ([3]; 24 h): 0.08 ± 0.02
clearance route [3]: clears exclusively through the kidneys
% INTACT STARTING SPECIES BY INCUBATION TIME | 1 h (FIG. 2): 99.9±0.2% and 97.1±0.8% and 86.6±1.5%
% INTACT STARTING SPECIES BY INCUBATION TIME | 3 h (FIG. 2): 99.3±0.6% and 98.8±0.9% and 98.7±0.8% and 96.2±0.6% and 90.7±1.7% and 55.7±3.8%

O=C1NCCCN2CCCCN3CCCNC(=O)c4cccc(=O)n4[O][89Zr]([O]n4c1cccc4=O)([O]n1c(cccc1=O)C2=O)[O]n1c(cccc1=O)C3=O [^89Zr-HOPO]
stability in human serum (ITLC and SEC) [1]: stable in serum over 7 days
stability to transchelation by EDTA [2]: remains intact for the full 7 days
partition coefficient (lipophilicity) [4]: more lipophilic than ^89Zr-DFO
biodistribution Bladder ([3]; 10 min): 2.04 ± 1.06
biodistribution Blood ([3]; 10 min): 3.24 ± 0.66
biodistribution Bone ([3]; 10 min): 1.04 ± 0.44
biodistribution Gall Bladder ([3]; 10 min): 6.61 ± 2.87
biodistribution Heart ([3]; 10 min): 1.57 ± 0.22
biodistribution Kidney ([3]; 10 min): 9.46 ± 2.71
biodistribution Large Intestine ([3]; 10 min): 0.26 ± 0.15
biodistribution Liver ([3]; 10 min): 3.29 ± 0.75
biodistribution Lung ([3]; 10 min): 1.07 ± 0.17
biodistribution Muscle ([3]; 10 min): 0.36 ± 0.06
biodistribution Small Intestine ([3]; 10 min): 5.99 ± 1.18
biodistribution Spleen ([3]; 10 min): 0.31 ± 0.04
biodistribution Stomach ([3]; 10 min): 1.22 ± 0.39
biodistribution Tail ([3]; 10 min): 4.25 ± 1.46
Blood/Bone ratio ([3]; 1 h): 0.6 ± 0.4
Muscle/Bone ratio ([3]; 1 h): 0.34 ± 0.15
biodistribution Bladder ([3]; 1 h): 0.73 ± 0.36
biodistribution Blood ([3]; 1 h): 0.17 ± 0.10
biodistribution Bone ([3]; 1 h): 0.29 ± 0.09
biodistribution Gall Bladder ([3]; 1 h): 6.94 ± 3.38
biodistribution Heart ([3]; 1 h): 0.12 ± 0.06
biodistribution Kidney ([3]; 1 h): 1.05 ± 0.51
biodistribution Large Intestine ([3]; 1 h): 0.09 ± 0.06
biodistribution Liver ([3]; 1 h): 0.22 ± 0.09
biodistribution Lung ([3]; 1 h): 0.17 ± 0.09
biodistribution Muscle ([3]; 1 h): 0.10 ± 0.03
biodistribution Small Intestine ([3]; 1 h): 1.11 ± 0.35
biodistribution Spleen ([3]; 1 h): 0.09 ± 0.03
biodistribution Stomach ([3]; 1 h): 0.30 ± 0.15
biodistribution Tail ([3]; 1 h): 0.81 ± 0.34
Blood/Bone ratio ([3]; 4 h): 0.2 ± 0.2
Muscle/Bone ratio ([3]; 4 h): 0.4 ± 0.3
biodistribution Bladder ([3]; 4 h): 0.58 ± 0.27
biodistribution Blood ([3]; 4 h): 0.05 ± 0.04
biodistribution Bone ([3]; 4 h): 0.23 ± 0.12
biodistribution Gall Bladder ([3]; 4 h): 1.00 ± 0.41
biodistribution Heart ([3]; 4 h): 0.06 ± 0.01
biodistribution Kidney ([3]; 4 h): 0.40 ± 0.14
biodistribution Large Intestine ([3]; 4 h): 7.17 ± 2.15
biodistribution Liver ([3]; 4 h): 0.13 ± 0.01
biodistribution Lung ([3]; 4 h): 0.08 ± 0.01
biodistribution Muscle ([3]; 4 h): 0.09 ± 0.06
biodistribution Small Intestine ([3]; 4 h): 0.12 ± 0.13
biodistribution Spleen ([3]; 4 h): 0.06 ± 0.01
biodistribution Stomach ([3]; 4 h): 0.50 ± 0.74
biodistribution Tail ([3]; 4 h): 0.29 ± 0.18
biodistribution Bladder ([3]; 12 h): 0.54 ± 0.26
biodistribution Blood ([3]; 12 h): 0.02 ± 0.00
biodistribution Bone ([3]; 12 h): 0.25 ± 0.07
biodistribution Gall Bladder ([3]; 12 h): 2.45 ± 1.02
biodistribution Heart ([3]; 12 h): 0.06 ± 0.01
biodistribution Kidney ([3]; 12 h): 0.53 ± 0.23
biodistribution Large Intestine ([3]; 12 h): 0.10 ± 0.03
biodistribution Liver ([3]; 12 h): 0.09 ± 0.02
biodistribution Lung ([3]; 12 h): 0.06 ± 0.01
biodistribution Muscle ([3]; 12 h): 0.06 ± 0.01
biodistribution Small Intestine ([3]; 12 h): 0.02 ± 0.01
biodistribution Spleen ([3]; 12 h): 0.05 ± 0.01
biodistribution Stomach ([3]; 12 h): 0.01 ± 0.00
biodistribution Tail ([3]; 12 h): 0.11 ± 0.04
Blood/Bone ratio ([3]; 1 d): 0.12 ± 0.02
Muscle/Bone ratio ([3]; 1 d): 0.35 ± 0.09
biodistribution Bladder ([3]; 24 h): 0.28 ± 0.14
biodistribution Blood ([3]; 24 h): 0.02 ± 0.00
biodistribution Bone ([3]; 24 h): 0.17 ± 0.03
biodistribution Gall Bladder ([3]; 24 h): 1.15 ± 0.59
biodistribution Heart ([3]; 24 h): 0.07 ± 0.01
biodistribution Kidney ([3]; 24 h): 0.51 ± 0.29
biodistribution Large Intestine ([3]; 24 h): 0.03 ± 0.02
biodistribution Liver ([3]; 24 h): 0.06 ± 0.03
biodistribution Lung ([3]; 24 h): 0.06 ± 0.05
biodistribution Muscle ([3]; 24 h): 0.06 ± 0.01
biodistribution Small Intestine ([3]; 24 h): 0.02 ± 0.00
biodistribution Spleen ([3]; 24 h): 0.06 ± 0.01
biodistribution Stomach ([3]; 24 h): 0.02 ± 0.00
biodistribution Tail ([3]; 24 h): 0.05 ± 0.01
Blood/Bone ratio ([3]; […]): 3.1 ± 1.5
Muscle/Bone ratio ([3]; […]): 0.35 ± 0.16
clearance route [3]: cleared through both renal and hepatobiliary excretion
% INTACT STARTING SPECIES BY INCUBATION TIME | 1 h (FIG. 2): 99.8±0.4% and 99.3±1.3% and 99.0±1.8%
% INTACT STARTING SPECIES BY INCUBATION TIME | 7 d (FIG. 2): 99.6±0.7% and 99.2±1.5%
% INTACT STARTING SPECIES BY INCUBATION TIME | INITIAL (FIG. 2): 99.7±0.6% and 99.5±0.9%
